How the values were obtained:
[1] = Selectivity ratio IC50 for non-senescent human WI-38 cells to IC50 for ionizing radiation induced human WI-38 senescent cells; type: functional
WI-38 = assay: Senolytic activity in ionizing radiation induced human WI-38 senescent cells by PI staining based flow cytometry analysis; type: functional, cell-based
[2] = Senolytic activity in non-senescent human WI-38 cells by PI staining based flow cytometry analysis; type: toxicity, cell-based; conditions: non-senescent WI-38 cells

| Structure (SMILES) | Ratio IC50 [1] | IC50 (WI-38) [µM] | IC50 [2] [µM] |
| --- | --- | --- | --- |
| COc1ccc(/C=C/C(=O)N2CCCC=C(Cl)C2=O)cc1 | 9.3 | 0.16 | 1.5 |
| CN(C)C/C=C/C(=O)N1CCC=CC1=O | 3.5 | 2.8 | 9.7 |
| COc1cc(/C=C/C(=O)N2CCCC=C(Cl)C2=O)cc(OC)c1OC | 3.7 | 0.45 | 1.7 |
| O=C(C#Cc1ccccc1)N1CCC=CC1=O | 1.6 | 0.93 | 1.5 |
| COc1cc(/C=C/C(=O)N2CCC=C(Br)C2=O)cc(OC)c1OC | 10.4 | 0.52 | 5.4 |
| CN(C)CCOc1ccc(/C=C/C(=O)N2CCC=C(Br)C2=O)cc1 | 1.5 | 3.2 | 4.8 |
| COc1cc(/C=C/C(=O)N2CC(O)C=CC2=O)cc(OC)c1OC (stereo unspecified) | 1.5 | 7.4 | 11.3 |
| CN(C)CCOc1ccc(/C=C/C(=O)N2CCC=CC2=O)cc1 | 13.3 | 1.5 | 19.5 |
| COc1cc(/C=C/C(=O)N2CCC=C(Cl)C2=O)cc(OC)c1OC | 8.1 | 0.65 | 5.3 |
| COc1cc(/C=C/C(=O)N2CCC=C(F)C2=O)cc(OC)c1OC | 0.8 | 15.3 | 12.1 |
| CN(C)CCOc1ccc(/C=C/C(=O)N2CCC=C(Cl)C2=O)cc1 | 1.5 | 2.9 | 4.4 |
| COc1cc(/C=C/C(=O)N2CCC(=O)/C(=C/c3ccc(F)cc3F)C2)cc(OC)c1OC | 4.2 | 14.7 | 62.5 |
| COc1cc(/C=C/C(=O)N2CCC(=O)CC2)cc(OC)c1OC |  | > 40 | > 40 |
| COc1cc(/C=C/C(=O)N2CC=CCC2=O)cc(OC)c1OC | >2.9 | 27.5 | > 80 |
| COc1cc(/C=C/C(=O)N2CCC=C(C(F)(F)F)C2=O)cc(OC)c1OC |  | > 40 | > 40 |
| COc1ccc(/C=C/C(=O)N2CCCC=C(Br)C2=O)cc1 | 4.4 | 1.3 | 5.8 |
| COc1cc(C#CC(=O)N2CCC=CC2=O)cc(OC)c1OC | 3.2 | 4.4 | 13.9 |
| COc1cc(/C=C/C(=O)N2CCC=CC2=O)cc(OC)c1OC [PIPLARTINE] | 2.5 |  | 20.3 |
| COc1ccc(/C=C/C(=O)N2CCC=C(Br)C2=O)cc1 | 1.8 | 0.63 | 1.1 |
| COc1cc(/C=C/C(=O)N2CCC(N(C)C)CC2=O)cc(OC)c1OC (stereo unspecified) | 3.4 | 10.2 | 34.6 |
| COc1cc(/C=C/C(=O)N2CCC=C(I)C2=O)cc(OC)c1OC | 7.1 | 2.3 | 16.3 |
| COc1cc(/C=C/C(=O)N2C=CC=CCC2=O)cc(OC)c1OC | 1.3 | 21.1 | 26.7 |
| COc1cc(/C=C/C(=O)N2CCCC=C(Br)C2=O)cc(OC)c1OC | 6.5 | 0.56 | 3.6 |
| COc1cc(/C=C/C(=O)N2OCC=CC2=O)cc(OC)c1OC | 6 | 8.1 | 48.9 |
| CN(C)CCOc1ccc(/C=C/C(=O)N2CCCC=C(Cl)C2=O)cc1 | 1.3 | 2.4 | 3 |
| COc1ccc(/C=C/C(=O)N2CCC=C(Cl)C2=O)cc1 | 0.7 | 0.51 | 0.35 |
| COc1cc(/C=C/C(=O)N2CCC(=O)/C(=C/c3ccc(F)cc3)C2)cc(OC)c1OC | 3.9 | 14 | 53.8 |
| CN(C)CCOc1ccc(/C=C/C(=O)N2CCCC=C(Br)C2=O)cc1 | 1.2 | 2.9 | 3.4 |

— ChEMBL document CHEMBL5356983, “Design and optimization of piperlongumine analogs as potent senolytics” (Bioorg Med Chem Lett, 2024)
